This experiment has as its target T1, Cathepsin K (Homo sapiens, UniProt P43235).
T1 sequence (P43235 whole entry): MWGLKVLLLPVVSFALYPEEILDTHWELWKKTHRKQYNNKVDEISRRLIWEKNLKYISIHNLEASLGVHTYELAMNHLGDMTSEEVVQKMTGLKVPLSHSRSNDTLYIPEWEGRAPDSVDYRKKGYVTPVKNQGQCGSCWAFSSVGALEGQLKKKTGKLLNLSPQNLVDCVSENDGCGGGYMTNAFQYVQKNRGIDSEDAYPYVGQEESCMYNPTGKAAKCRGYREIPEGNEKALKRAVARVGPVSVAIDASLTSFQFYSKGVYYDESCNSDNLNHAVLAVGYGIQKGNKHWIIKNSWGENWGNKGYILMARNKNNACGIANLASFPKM
As to the kind of experiment: Competitive inhibition of recombinant human cathepsin K expressed in Pichia pastoris using Z-FR-MCA as substrate by Dixon plot method.

`CC(=O)N[C@@H](CC(C)C)C(=O)N[C@@H](CC(C)C)C(=O)N[C@H](C=O)CCCNC(=N)N` [LEUPEPTIN]: the Ki was found to be 0.024 µM.
Consider `CC(=O)N[C@@H](CC(C)C)C(=O)N[C@@H](CC(C)C)C(=O)N[C@H]1CCCN2C(N)=NC(=N)N[C@@H]12`, for which the Ki was found to be 44 µM.

One may read the Ki as a measure of affinity in units of concentration, obtained from inhibition or displacement.

Values taken from ChEMBL document CHEMBL3997836, “Leupeptazin, a highly modified tripeptide isolated from cultures of a Streptomyces sp. inhibits cathepsin K” (Bioorg Med Chem Lett, 2017).
